# Experiments:
# [1] = test system: cecal ligation and puncture model (CLP) of sepsis-induced renal injury; assay: Renal microcirculation after CLP by intravital video microscopy; assay type: in vivo, mouse; conditions: for capillary perfusion / RBC velocity / volumetric blood flow: 18 hours after CLP
# Procedure: Control (sham) mice underwent surgery but not CLP. Fresh solutions of tRes were prepared in dimethyl sulfoxide as the vehicle (veh) and diluted in normal saline before use. Dextran and […] were administered to the penile vein to visualize the capillary vascular space and detect RNS generation, respectively. The left kidney was exposed by a flank incision and positioned on a glass stage with a fluorescent microscope equipped with an Axiocam HSm camera. Intravital Video Microscopy (IVVM) of 10 s intervals at 200× magnification were acquired from randomly selected, non-overlapping fields of view. Capillaries were randomly selected for the 10 sec videos and categorized as “continuous flow” where red blood cell (RBC) movement was continuous; “intermittent flow” where RBC movement stopped or reversed; or “no flow” where no RBC movement was detected as shown in FIG. 8. RBC velocity was calculated in continuously flowing capillaries by measuring the distance traveled by a single RBC over time, expressed in μm/s.
# [2] = test system: CLP or Control (Sham) mice; assay: Mean arterial pressure and heart rate by biotelemetry; assay type: in vivo, mouse
# Procedure: Mean arterial pressure (MAP) and heart rate (HR) were monitored continuously in conscious mice using biotelemetry. Transmitters (Data Sciences International, Minneapolis Minn.) were implanted into the carotid artery under isoflurane anesthesia and the animals were allowed to recover for 48 h. Mice were re-anesthetized with isoflurane and received CLP or Control (Sham) surgery. Cardiovascular parameters were recorded for 10 s every 5 min.
# [3] = test system: CLP mice; assay: Systemic serum nitric oxide levels after CLP; assay type: in vivo, mouse; conditions: CLP mice at 18 hours, two doses
# Procedure: Serum nitrate and […] were determined using the Total Nitric Oxide Assay Kit (Assay Designs, Ann Arbor, Mich.) as directed by the manufacturer. Data were expressed as serum nitrate+nitrate concentration in […].
# [4] = molecular target: T1, human UGT1A10 (Homo sapiens, UniProt Q9HAW8); conditions: 250 μM
# T1 sequence (Q9HAW8 26-530): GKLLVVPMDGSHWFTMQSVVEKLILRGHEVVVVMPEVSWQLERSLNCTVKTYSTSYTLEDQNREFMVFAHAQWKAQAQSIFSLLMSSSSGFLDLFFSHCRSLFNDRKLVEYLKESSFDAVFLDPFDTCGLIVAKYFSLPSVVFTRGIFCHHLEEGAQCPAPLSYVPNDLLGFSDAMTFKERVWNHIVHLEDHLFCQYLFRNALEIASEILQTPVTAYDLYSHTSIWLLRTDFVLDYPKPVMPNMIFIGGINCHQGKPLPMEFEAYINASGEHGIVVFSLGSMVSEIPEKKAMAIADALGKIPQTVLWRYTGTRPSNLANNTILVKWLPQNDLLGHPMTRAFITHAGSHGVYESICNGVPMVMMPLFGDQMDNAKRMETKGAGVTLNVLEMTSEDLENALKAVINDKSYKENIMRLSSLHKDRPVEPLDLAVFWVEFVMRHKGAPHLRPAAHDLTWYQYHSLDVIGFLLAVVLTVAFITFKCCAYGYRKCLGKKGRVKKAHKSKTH
# Procedure: Eight human recombinant UGT1A isoforms (UGT1A1, 1A3, 1A4, 1A6, 1A7, 1A8, 1A9, and 1A10; 5 μg) expressed as His-tag proteins in baculovirus-infected Sf9 insect cells and human liver microsomes (from one donor; HL2; 50 μg) and human intestinal microsomes (from two donors; HI36 and HI41; 50 μg) were evaluated for their ability to glucuronidate these four compounds. The concentrations of the substrate and co-substrate (i.e., UDP-GlcUA) were 250 μM and 4 mM, respectively. Glucuronidation products were analyzed by HPLC and LCMS/MS.
# The kinetic constants of the glucuronidation reactions using recombinant human UGT1A1 and UGT1A10 were determined by measuring the enzyme activity in the presence of increasing concentrations of substrate (see FIG. 2).
# [5] = test system: CLP mice; assay: Serum creatinine and blood urea nitrogen after CLP; assay type: in vivo, mouse
# Procedure: Acute Kidney Injury (AKI) is accompanied by elevated blood urea nitrogen levels, elevated creatinine levels, and low blood pressure. Serum creatinine and blood urea nitrogen (BUN) were measured using the QuantiChrom® Creatinine Assay kit and Urea Assay Kit (BioAssay Systems, Hayward Calif.).
# [6] = test system: CLP or Control (Sham) mice; assay: Renal arterial blood flow by Doppler flow probe; assay type: in vivo, mouse
# Excerpt: Under isoflurane anesthesia, the right kidney was exposed by flank incision and the renal artery and vein were carefully dissected from surrounding tissue with Dumont-5 forceps. The renal artery was isolated from the vein and a Transonic Systems (Ithaca, N.Y.) 0.5 PSL renal artery Doppler flow probe was positioned around the renal artery. The probe was calibrated in water using the zero and scale settings on the TS420 flowmeter (Transonic Systems). […] Body temperature was maintained at 36 to 37° C. with a heating lamp. Data were expressed in ml/min/g kidney weight.
# Renal blood flow was measured essentially as described above in Example 10 following CPL surgery or control treatment (no surgery). CPL-treated mice were administered 10 mg/kg of resveratrol, 2.5 mg/kg of resveratrol-3-sulfate, or vehicle. […] In fact, resveratrol-3-sulfate produced the same degree of reversal at 25% of the dose of resveratrol.
# [7] = test system: CB1 receptors; assay type: biochemical, mouse; conditions: 10 μM compound, 30 min at 30° C.
# [8] = test system: CLP mice; assay: Histology of renal tissue (PAS staining) after CLP; assay type: in vivo, mouse; conditions: two-dose regimen
# Excerpt: Renal tissue was also stained with periodic acid-Schiff staining to show the amount of injury to the tissue. The periodic acid-Schiff (PAS) stained sections were scored in a blinded, semi-quantitative manner. For each animal, at least 10 high power (400×) fields were examined. […] Representative PAS-stained sections are shown in FIG. 15, panels (A)-(C) 200× magnification and the tissue scores are shown in (D). CLP caused mild morphological changes characterized by […], cast formation, vacuolization, and tubule dilation. These changes were prevented by the two-dose regimen of tRes.
# [9] = test system: cecal ligation and puncture model (CLP) of sepsis-induced renal injury; assay: Murine CLP model of sepsis, tRes 30 mg/kg (Example 5); assay type: in vivo, mouse; conditions: 30 mg/kg i.p. 30 min prior to and 6 hr post CLP; 18 hr post CLP
# Excerpt: Control (sham) mice underwent surgery but not CLP. Each treatment group contained 4-5 mice. Renal ONOO^− generation (rhodamine fluorescence) and renal peritubular capillary perfusion were quantified using intravital video microscopy (IVVM) on anesthetized mice in each of the treatment groups.
# [10] = at 6 hours after CLP, administration at 5.5 hours
# [11] = CLP mice, 3, 10, or 30 mg/kg i.p. at 5.5 hours
# [12] = 10 mg/kg administered 6 hours after CLP surgery, single dose
compound,measurement,setting,value
"Oc1ccc(/C=C/c2cc(O)cc(O)c2)cc1 [tRes, trans-resveratrol]",capillary perfusion,[1]; 10 mg/kg at 6 hours and second dose at 12 hours,prevented the change
same,RBC velocity,[1]; additional dose at 12 hours,complete restoration
same,volumetric blood flow,[1]; additional dose at 12 hours,complete restoration
same,RBC velocity,[1]; single dose,did not improve
same,volumetric blood flow,[1]; single dose,did not improve
same,capillary perfusion,[1]; single dose 10 mg/kg at 6 hours,unable to maintain perfusion
same,mean RBC velocity,[1]; at 6 h after CLP,improved
same,renal capillary volumetric blood flow,[1]; at 6 h after CLP,improved
same,most efficacious dose for capillary perfusion,[1]; [10],10 mg/kg
same,renal cortical peritubular capillary perfusion,[1]; [10],improved perfusion in a dose dependent manner
same,heart rate (HR),[2]; [11],no effect
same,mean arterial pressure (MAP),[2]; [11],no effect
same,heart rate (HR),[2]; Control (Sham) mice,slightly increase
same,serum nitrate+nitrate concentration,[3],did not affect
same,glucuronide formation by UGT1A10,[4],glucuronidated to 3-O— and 4′-O-Glucs
same,BUN levels,[5]; [12],not
same,serum creatinine levels,[5]; [12],significantly reduced
same,BUN levels,[5]; additional dose given at 12 h,significant reduction
same,serum creatinine levels,[5]; additional dose given at 12 h,significant reduction
same,Renal Arterial Blood Flow (RBF),"[6]; CLP mice at 6 hours, 10 mg/kg via the penile vein at 5.5 hours",2.6 ± 0.6 mL/min/g
same,renal blood flow,"[6]; CPL-treated mice, 10 mg/kg (Example 15)",increased blood flow
same,Renal Arterial Blood Flow (RBF),"[6]; Control (Sham) mice, 10 mg/kg",without effect
same,basal G-protein activity,[7],little effect
same,CLP-induced morphological changes of renal tissue (PAS),[8],prevented
same,RNS generation in the kidney,[9],blocked
same,renal capillary perfusion,[9],preserved
